Laboratory results: the NIST ThermoML archive (doi:10.1016/j.fluid.2012.03.005)

Settings: for surface tension liquid-gas: Pendant drop shape; for mass density: 101.33 kPa, Liquid, Vibrating tube method

CCCCCCCCCCCCCC[P+](CCCCCC)(CCCCCC)CCCCCC.[Br-] [tetradecyltrihexylphosphonium bromide]
Settings	mass density [kg/m3]	surface tension liquid-gas [mN/m]
293.15 K	961.7	29.97
297.15 K	959.2	–
298.15 K	958.6	29.32
301.15 K	956.7	–
303.15 K	955.5	28.94
305.15 K	954.3	–
308.15 K	952.4	28.53
309.15 K	951.8	–
313.15 K	949.3	28.15
317.15 K	946.9	–
318.15 K	946.2	27.81
321.15 K	944.4	–
323.15 K	943.1	27.46
325.15 K	941.9	–
328.15 K	940.1	27.12
329.15 K	939.4	–
333.15 K	937	26.78
337.15 K	934.6	–
338.15 K	934	26.57
341.15 K	932.1	–
343.15 K	930.9	26.24
345.15 K	929.7	–
